{"source": "patent US7005447B2", "about": "“Food product comprising hydroxymatairesinol” (Hormos Nutraceutical Oy Ltd., priority 1999, dated 2006)", "key": {"[1]": {"tested_on": "uterine growth of immature rats", "assay": "Immature rat uterotropic test", "assay_type": "in vivo", "conditions": "7 days treatment, FIG. 3", "method": "The estrogenicity HMR was evaluated by the uterotropic assay in immature rats which was performed as described earlier (Jordan et al. 1977), with the exception of treatment time which was 7 days instead of 3 days in the reference study. The treatment time was longer because of the expected weak estrogenicity of the test compound. The treatment of immature rats with an aromatase inhibitor (MPV-2213 ad), which prevents biosynthesis of estradiol, was used as a methodological control for non-estrogen-stimulated uterus."}, "[2]": {"tested_on": "MCF-7 cells", "assay": "Estrogenic and antiestrogenic activity in MCF-7 cell proliferation assay", "assay_type": "cell-based, human", "parameters": "Estrogenic activity, cell proliferation: dose or concentration left out as unconfirmed", "conditions": "5 to 7 days, FIG. 2", "method": "The MCF-7 cell line (human breast cancer cells) stock cultures were grown in phenol red free RPMI medium supplemented with 5% FCS, 100 U/ml penicillin and 100 μg/ml streptomycin, 10 μg/ml insulin and 1 nM 17β-estradiol in T-75 cell culture bottles. The medium was replaced with fresh ones three times per week. The stock cultures were harvested by trypsinization and suspended in 10 ml phenol red free versene solution and cenitifuged for 5 min 800 rpm. The cell pellet was carefully resuspended into RPMI medium supplemented with 5% dextran charcoal stripped FCS (dcFCS) and seeded on 6 well plates 50 000 cells/3.0 ml medium/well. On the second day of culture the medium was changed and test compounds were added. To test the estrogenicity of the lignan compounds, they were diluted in ethanol and added to cell cultures in final concentration of […]. In each proliferation assay 1.0 nM 17β-estradiol solution in ethanol was used as a positive control for estrogenic response. Equal amounts of ethanol were added to control wells. To test the antiestrogenicity both 17β-estradiol and lignan solutions were added to cell cultures. The cells were cultured for 5 to 7 days in the presence of test compounds, and the medium was changed every second day. Cell proliferation was quantified by counting the released nuclei with Coulter counter."}, "[3]": {"tested_on": "tert-butylhydroperoxide-induced lipid peroxidation (t-BuOOH-LP) in rat liver microsomes", "assay": "Inhibition of tert-butylhydroperoxide-induced lipid peroxidation (t-BuOOH-LP), chemiluminescence", "assay_type": "biochemical", "method": "Inhibition of lipid peroxidation was evaluated on the basis of their potency to inhibit tert-butylhydroperoxide-induced lipid peroxidation (t-BuOOH-LP) in rat liver microsomes in vitro (Ahotupa et al. 1997). The test for the t-BuOOH-LP was carried out as follows: The buffer (50 mM sodium carbonate, pH 10.2, with 0.1 mM EDTA) was pipetted in a volume of 0.8 ml in the luminometer cuvette. Twenty microliters of diluted liver microsomes, final concentration 1.5 mg protein/ml, was added, followed by […] of luminol (0.5 mg/ml) and test chemicals. The test compounds were added to incubation mixtures in a small volume diluted in ethanol or dimethylsulphoxide (2% of incubation volume), and the lipid peroxidation potency was compared to that of the vehicle (ethanol or dimethyl sulphoxide). The reaction was initiated by 0.05 ml of 0.9 mM t-BuOOH at 33° C. Chemiluminescence was measured for about 45 min at 1 min cycles, and the area under curve (integral) was calculated. Chemiluminescence measurements were carried out using a Bio-Orbit 1251 Luminometer (Bio-Orbit, Turku, Finland) connected to a personal computer using dedicated software for the assays."}, "[4]": {"molecular_target": "T1, aromatase (Homo sapiens, UniProt P11511)", "T1 construct": "800 μl cell suspension (1 million cells); endogenous in cells; host or cells: JEG-3 human choriocarcinoma cells", "T1 sequence (P11511 1-503)": "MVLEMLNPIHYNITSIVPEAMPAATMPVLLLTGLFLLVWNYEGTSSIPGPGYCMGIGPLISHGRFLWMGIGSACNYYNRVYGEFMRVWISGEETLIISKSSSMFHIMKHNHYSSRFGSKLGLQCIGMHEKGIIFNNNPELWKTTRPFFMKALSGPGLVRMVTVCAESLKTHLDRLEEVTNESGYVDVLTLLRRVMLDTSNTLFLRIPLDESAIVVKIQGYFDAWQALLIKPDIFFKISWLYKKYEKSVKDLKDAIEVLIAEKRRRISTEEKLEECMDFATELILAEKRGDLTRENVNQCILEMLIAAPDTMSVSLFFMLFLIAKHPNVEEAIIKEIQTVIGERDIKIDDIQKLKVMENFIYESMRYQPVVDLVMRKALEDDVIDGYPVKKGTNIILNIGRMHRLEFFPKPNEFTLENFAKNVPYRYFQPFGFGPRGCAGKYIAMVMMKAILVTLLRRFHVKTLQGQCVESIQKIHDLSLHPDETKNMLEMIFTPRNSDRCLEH", "assay": "Aromatase inhibiting capacity in JEG-3 cells (3H-17β-estradiol formation from 3H-androstenedione)", "assay_type": "cell-based", "conditions": "4 h incubation, FIG. 1", "method": "The effects of HMR and structurally related lignans (enterolactone, enterodiol and 7-hydroxyenterolactone) were studied on formation of ^3H-17β-estradiol from ^3H-andostenedione in JEG-3 cells, human choriocarcinoma cell line. […] Cells were maintained in DMEM containing 10% fetal calf serum (FCS). The incubation mixture contained 50 μl ^3H-androst-4-ene, 3,17-dione (0.5 nM), 50 μl unlabelled androstenedione (0.5 nM), 100 μl test compounds (10 mM) and 800 μl cell suspension (1 million cells). After the incubation for 4 h, unlabelled carriers (androstenedione, testosterone, 17β-estradiol and estrone) were added. The steroids were extracted twice with 3.0 ml dichloromethane. […] The column system consisted of a guard column followed by a C18 150×3.9 mm ID analytical column (Technopak 10 C18 HPLC Technology; Wellington House, Cheshire, UK). The mobile phase was acetonitrile/water (35/65) and the flow rate was 1.2 ml/min. For in-line detection of the radioactive metabolites, the eluent of the HPCL column was continuously mixed with liquid scintillant and then monitored with in-line radioactivity detector."}, "[5]": {"tested_on": "low density lipoprotein (LDL) oxidation", "assay": "Inhibition of LDL oxidation (CuCl2-induced, absorbance at 234 nm)", "assay_type": "biochemical", "conditions": "CuCl2, 3 hrs at +37° C.; read-out: Inhibition of LDL oxidation, IC-50", "method": "Inhibition of LDL oxidation was estimated as described by Ahotupa et al, 1996. Shortly: LDL was isolated by precipitation with buffered heparin. After resuspendation in phosphate buffer, 20 mM CuCl2 was added and the mixture was incubated for 3 hrs at +37° C. After this, LDL lipids were extracted with chloroform-methanol, dried under nitrogen, redissolved in cyclohexane and analyzed spectrophotometrically at 234 nm. The intensity of absorbance is indicative of LDL oxidation. To test the ability of different compounds to prevent LDL oxidation, the compounds were added to the incubation mixture prior addition of CuCl2. Possible interference of test compounds with the assay procedure was excluded by measuring the absorption at 234 nm before and after the incubation period."}}, "note": "Like-named read-outs stand apart in the source and are kept apart here.", "data": [{"smiles": "COc1cc(CC2C(=O)OCC2C(O)c2ccc(O)c(OC)c2)ccc1O", "note": "(centres unmarked) [HMR, hydroxymatairesinol]", "values": [{"measurement": "Antiestrogenic effect (reduction of uterine weight gain)", "setting": "[1]", "result": "no antiestrogenic effect"}, {"measurement": "Estrogenic effect on uterine weight gain", "setting": "[1]", "result": "no significant estrogenic effect"}, {"measurement": "Estrogenic activity, cell proliferation", "setting": "[2]; MCF-7, lignan alone", "result": "very weak, not statistically significant"}, {"measurement": "Antiestrogenic activity, cell proliferation", "setting": "[2]; MCF-7, lignan together with 17β-estradiol", "result": "very weak, not statistically significant"}, {"measurement": "IC50", "setting": "[3]; Table 3 comparison with known antioxidants, read-out: Inhibition of lipid peroxidation, IC-50", "result": 0.06, "unit": "µM"}, {"measurement": "IC50", "setting": "[3]; lipid peroxidation inhibition test, rat liver microsomes, Table 2, read-out: Antioxidative capacity (t-BuOOH-LP) IC50", "result": 0.08, "unit": "µM"}, {"measurement": "Inhibition of aromatization (3H-17β-estradiol formation from 3H-androstenedione)", "setting": "[4]", "result": "no inhibitory effects"}, {"measurement": "IC50", "setting": "[5]", "result": 2, "unit": "µM"}]}]}
